The values that follow come from patent publication US20090170880A1, “Methods and Means for the Treatment of Cancer” (priority 2007, published 2009).

Read-outs that look alike come from different tables or passages of the source.

One data set has as its target T1, human P-gp (MDR1) (Homo sapiens, UniProt P08183).
T1 construct: expressed in transfected cells; host or cells: LLC-PK1 (porcine kidney) cells transduced with human MDR1
The data set can be described thus: Transwell transport of temozolomide, LLC-MDR1 cells. The data set is classed as in vitro ADME. Conditions: 40 μg/ml, LLC-MDR1 versus LLC-PK1 monolayers. How it is done:
(§1) The parental LLC pig-kidney (PK1) cell line and sublines transduced with murine Mdr1a or human MDR1 (12) and the parental Madine Darby Canine Kidney (MDCK) and murine Bcrp1 or human BCRP transduced sublines (13) were seeded on Transwell microporous polycarbonate membrane filters (3.0 μm pore size, 24 mm diameter; Costar Corning, N.Y., USA) at a density of 1×10^6 cells per well in 2 ml of MEM medium (Invitrogen Corporation, Carlsbad, Calif.) containing 10% v/v fetal calf serum. Cells were incubated at 37° C. in 5% CO2 for three days with one medium replacement after the first day. Two hours before the start of the experiment the medium in both compartments was replaced with 2 ml of OptiMEM medium (InVitrogen Corp.). At the start of the experiment the medium in the apical or basolateral compartment was replaced with 2 ml of freshly prepared OptiMEM medium containing 40 μg/ml of temozolomide. […] Zosuquidar (LY335979, 5 μM) was always added to the medium when doing experiments with MDCK cell lines to inhibit endogenous canine P-gp. Samples of 50 μl were collected every 30 min, for up to 2 h after start of the experiment. Because temozolomide is instable in medium at 37° C., we replaced one ml of the donor compartment by a freshly prepared aliquot every 30 min. […]

The next data set deals with T2, murine P-gp (Mdr1a) (Mus musculus, UniProt P21447).
T2 construct: expressed in transfected cells; host or cells: LLC-PK1 (porcine kidney) cells transduced with murine Mdr1a
T2 sequence (P21447 whole entry): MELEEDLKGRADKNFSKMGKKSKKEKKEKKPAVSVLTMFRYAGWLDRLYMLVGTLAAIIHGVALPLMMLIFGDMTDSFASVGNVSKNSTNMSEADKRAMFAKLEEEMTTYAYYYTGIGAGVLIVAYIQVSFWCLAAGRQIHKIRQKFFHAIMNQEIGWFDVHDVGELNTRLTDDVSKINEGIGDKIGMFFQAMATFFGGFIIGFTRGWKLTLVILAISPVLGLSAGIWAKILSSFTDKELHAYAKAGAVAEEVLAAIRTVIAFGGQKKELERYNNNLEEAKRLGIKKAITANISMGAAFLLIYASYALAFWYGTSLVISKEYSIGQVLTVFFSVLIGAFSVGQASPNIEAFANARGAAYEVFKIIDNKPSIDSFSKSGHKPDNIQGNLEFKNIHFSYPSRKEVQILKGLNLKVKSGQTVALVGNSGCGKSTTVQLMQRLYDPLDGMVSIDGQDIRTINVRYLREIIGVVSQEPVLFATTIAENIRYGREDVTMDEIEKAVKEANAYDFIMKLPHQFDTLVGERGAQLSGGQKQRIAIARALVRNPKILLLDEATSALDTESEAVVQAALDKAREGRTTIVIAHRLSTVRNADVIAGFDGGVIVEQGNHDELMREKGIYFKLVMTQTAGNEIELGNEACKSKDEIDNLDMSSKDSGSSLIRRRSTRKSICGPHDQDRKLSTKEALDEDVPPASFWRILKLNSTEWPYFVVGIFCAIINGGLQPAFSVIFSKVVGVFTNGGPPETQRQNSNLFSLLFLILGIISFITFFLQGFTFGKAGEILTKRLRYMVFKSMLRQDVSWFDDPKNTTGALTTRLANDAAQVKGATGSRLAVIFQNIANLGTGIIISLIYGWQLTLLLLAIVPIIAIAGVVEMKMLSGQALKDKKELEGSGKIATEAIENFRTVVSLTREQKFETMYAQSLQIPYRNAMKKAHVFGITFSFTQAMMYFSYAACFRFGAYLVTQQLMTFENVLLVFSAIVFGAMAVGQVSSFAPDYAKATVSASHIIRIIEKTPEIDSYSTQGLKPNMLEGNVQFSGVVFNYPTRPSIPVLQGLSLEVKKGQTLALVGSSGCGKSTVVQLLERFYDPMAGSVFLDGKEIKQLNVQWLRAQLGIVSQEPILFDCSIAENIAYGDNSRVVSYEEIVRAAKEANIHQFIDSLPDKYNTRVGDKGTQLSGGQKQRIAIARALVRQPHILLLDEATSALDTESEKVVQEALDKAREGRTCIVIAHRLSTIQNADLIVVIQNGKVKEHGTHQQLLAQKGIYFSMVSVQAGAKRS
As to the kind of experiment: Transwell transport of temozolomide, LLC-Mdr1a cells. The data set is classed as in vitro ADME. The note with it: 40 μg/ml, LLC-Mdr1a versus LLC-PK1 monolayers. The procedure:
as §1

Data set [1] relates to recurrent grade 3 and grade 4 gliomas, GBM. The note with it: cited from earlier work.
Another data set relates to U87. As to the kind of experiment: Antitumor response against U87 tumor. The data set is classed as in vivo. Conditions: one single dose of 25 mg/kg, results not shown.
The next data set deals with T3, human BCRP (Homo sapiens, UniProt Q9UNQ0).
T3 construct: expressed in transfected cells; host or cells: MDCK (canine kidney) cells transduced with human BCRP
T3 sequence (Q9UNQ0 1-655): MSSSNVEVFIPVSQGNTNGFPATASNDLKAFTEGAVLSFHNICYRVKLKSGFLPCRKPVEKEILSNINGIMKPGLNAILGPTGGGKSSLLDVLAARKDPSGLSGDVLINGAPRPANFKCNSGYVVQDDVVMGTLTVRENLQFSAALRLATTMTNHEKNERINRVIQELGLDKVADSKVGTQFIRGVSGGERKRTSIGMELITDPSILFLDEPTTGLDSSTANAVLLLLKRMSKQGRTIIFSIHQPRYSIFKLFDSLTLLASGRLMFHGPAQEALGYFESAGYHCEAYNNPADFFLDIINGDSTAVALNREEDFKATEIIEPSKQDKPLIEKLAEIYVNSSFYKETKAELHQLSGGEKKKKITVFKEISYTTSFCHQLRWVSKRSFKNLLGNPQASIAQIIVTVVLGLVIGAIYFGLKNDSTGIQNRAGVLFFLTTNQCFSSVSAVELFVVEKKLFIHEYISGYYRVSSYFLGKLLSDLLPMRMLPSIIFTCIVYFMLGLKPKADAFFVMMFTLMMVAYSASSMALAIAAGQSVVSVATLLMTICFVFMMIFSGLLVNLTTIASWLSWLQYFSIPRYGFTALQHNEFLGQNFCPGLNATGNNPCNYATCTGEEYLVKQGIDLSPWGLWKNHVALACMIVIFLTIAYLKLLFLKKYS
The data set can be described thus: Transwell transport of temozolomide, MDCK-BCRP cells. The data set is classed as in vitro ADME. Conditions: 40 μg/ml, MDCK-BCRP versus MDCK parent, zosuquidar 5 μM. The procedure: as §1

The nature of data set [2]: Stability of temozolomide in culture medium. The data set is classed as physicochemical.
The next data set concerns the target T4, murine Bcrp1 (Mus musculus, UniProt Q7TMS5).
T4 construct: expressed in transfected cells; host or cells: MDCKII (canine kidney) cells transduced with murine Bcrp1
T4 sequence (Q7TMS5 1-657): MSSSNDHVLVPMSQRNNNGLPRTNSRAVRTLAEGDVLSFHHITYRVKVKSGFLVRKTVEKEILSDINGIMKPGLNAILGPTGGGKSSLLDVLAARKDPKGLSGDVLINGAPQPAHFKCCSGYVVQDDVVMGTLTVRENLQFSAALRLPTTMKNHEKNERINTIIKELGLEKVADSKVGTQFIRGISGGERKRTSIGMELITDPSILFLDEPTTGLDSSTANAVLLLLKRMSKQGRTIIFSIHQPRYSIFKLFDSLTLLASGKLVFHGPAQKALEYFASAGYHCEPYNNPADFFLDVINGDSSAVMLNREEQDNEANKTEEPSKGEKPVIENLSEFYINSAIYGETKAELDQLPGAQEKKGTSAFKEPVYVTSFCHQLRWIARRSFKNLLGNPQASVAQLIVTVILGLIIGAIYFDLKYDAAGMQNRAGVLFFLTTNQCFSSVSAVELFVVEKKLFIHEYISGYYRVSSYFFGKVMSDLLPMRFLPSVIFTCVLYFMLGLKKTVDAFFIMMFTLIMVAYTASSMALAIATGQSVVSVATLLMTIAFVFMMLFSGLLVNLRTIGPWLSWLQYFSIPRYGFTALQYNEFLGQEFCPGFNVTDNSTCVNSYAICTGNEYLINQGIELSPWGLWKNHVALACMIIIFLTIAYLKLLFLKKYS
The data set can be described thus: Transwell transport of temozolomide, MDCKII-Bcrp1 cells, without or with inhibitors. The data set is classed as in vitro ADME. Conditions: 40 μg/ml, MDCK-Bcrp1 versus MDCK parent, zosuquidar 5 μM. The procedure:
The parental LLC pig-kidney (PK1) cell line and sublines transduced with murine Mdr1a or human MDR1 (12) and the parental Madine Darby Canine Kidney (MDCK) and murine Bcrp1 or human BCRP transduced sublines (13) were seeded on Transwell microporous polycarbonate membrane filters (3.0 μm pore size, 24 mm diameter; Costar Corning, N.Y., USA) at a density of 1×10^6 cells per well in 2 ml of MEM medium (Invitrogen Corporation, Carlsbad, Calif.) containing 10% v/v fetal calf serum. Cells were incubated at 37° C. in 5% CO2 for three days with one medium replacement after the first day. Two hours before the start of the experiment the medium in both compartments was replaced with 2 ml of OptiMEM medium (InVitrogen Corp.). At the start of the experiment the medium in the apical or basolateral compartment was replaced with 2 ml of freshly prepared OptiMEM medium containing 40 μg/ml of temozolomide. […] Zosuquidar (LY335979, 5 μM) was always added to the medium when doing experiments with MDCK cell lines to inhibit endogenous canine P-gp. Samples of 50 μl were collected every 30 min, for up to 2 h after start of the experiment. Because temozolomide is instable in medium at 37° C., we replaced one ml of the donor compartment by a freshly prepared aliquot every 30 min. [^3H]-inulin (approximately 7 kBq per well) was added to the same compartment as temozolomide to check the integrity of the cell layer. Wells showing a leakage of more than 1.5% per hour were excluded.
First, we took samples every 30 min for up to 2 h instead of every hour for up to 4 h. Secondly, to maintain adequate temozolomide levels at the donor side throughout the experiment we replaced 1 ml of the 2 ml of medium at the donor side of the transwell at each sampling time by 1 ml of a freshly prepared temozolomide solution in medium.

T1 sequence (P08183 whole entry): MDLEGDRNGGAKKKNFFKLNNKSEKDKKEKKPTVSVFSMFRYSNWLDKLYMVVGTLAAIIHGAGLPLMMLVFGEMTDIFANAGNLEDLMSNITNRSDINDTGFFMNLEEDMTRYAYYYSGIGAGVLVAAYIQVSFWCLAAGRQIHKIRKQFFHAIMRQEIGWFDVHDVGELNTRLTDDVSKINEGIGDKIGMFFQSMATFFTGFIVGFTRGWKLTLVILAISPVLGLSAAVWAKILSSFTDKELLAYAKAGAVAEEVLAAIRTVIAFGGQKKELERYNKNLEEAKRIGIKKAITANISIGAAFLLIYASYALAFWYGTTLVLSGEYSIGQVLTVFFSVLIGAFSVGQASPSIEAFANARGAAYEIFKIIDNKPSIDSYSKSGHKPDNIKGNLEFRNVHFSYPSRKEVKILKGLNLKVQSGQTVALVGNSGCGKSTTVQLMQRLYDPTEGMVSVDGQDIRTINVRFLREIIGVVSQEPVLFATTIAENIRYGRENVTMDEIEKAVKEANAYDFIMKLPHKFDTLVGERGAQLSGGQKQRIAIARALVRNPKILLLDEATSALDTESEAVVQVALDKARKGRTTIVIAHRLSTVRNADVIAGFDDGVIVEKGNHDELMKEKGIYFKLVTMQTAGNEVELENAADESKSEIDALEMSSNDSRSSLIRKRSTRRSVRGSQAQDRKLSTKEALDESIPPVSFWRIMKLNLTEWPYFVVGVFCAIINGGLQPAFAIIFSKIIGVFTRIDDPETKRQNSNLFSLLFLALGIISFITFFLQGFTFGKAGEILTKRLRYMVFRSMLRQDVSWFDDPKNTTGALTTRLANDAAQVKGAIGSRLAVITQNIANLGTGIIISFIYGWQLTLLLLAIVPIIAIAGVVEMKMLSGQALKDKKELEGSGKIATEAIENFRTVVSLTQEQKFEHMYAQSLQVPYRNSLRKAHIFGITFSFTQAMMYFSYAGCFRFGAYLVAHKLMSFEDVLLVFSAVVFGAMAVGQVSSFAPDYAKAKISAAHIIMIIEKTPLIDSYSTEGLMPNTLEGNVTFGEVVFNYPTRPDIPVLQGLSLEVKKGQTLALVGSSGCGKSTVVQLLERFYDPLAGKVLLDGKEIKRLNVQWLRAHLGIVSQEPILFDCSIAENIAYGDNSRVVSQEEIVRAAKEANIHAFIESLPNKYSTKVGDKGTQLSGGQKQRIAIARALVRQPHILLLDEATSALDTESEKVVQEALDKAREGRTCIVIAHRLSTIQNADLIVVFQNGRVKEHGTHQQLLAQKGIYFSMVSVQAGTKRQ

The half-life is how long it takes for the measured level to halve. High values mean slow loss, low ones fast loss. Regarding `Cn1nnc2c(C(N)=O)ncn2c1=O` [temozolomide, 8-carbamoyl-3-methyl-[3H]-imidazo[5,1-d]-1,2,3,5-tetrazin-4-one], the “transport of temozolomide by human P-gp” value at human P-gp (MDR1) is “very limited if any evidence for transport”; on human P-gp (MDR1) (listed as Temozolomide), “not readily detected”. The results for the “transport of temozolomide by murine P-gp” value at murine P-gp (Mdr1a) and on murine P-gp (Mdr1a) (listed as Temozolomide) were “very limited if any evidence for transport” and “not readily detected”, respectively. In addition, the “progression free survival compared to procarbazine” value in data set [1] (patients) is on record as “significantly longer”. Moreover, the “survival, radiotherapy with concomitant and adjuvant temozolomide versus radiotherapy alone” value in data set [1] (phase III trial) is on record as “significant survival benefit”. Moreover, the objective response rate is 35% in data set [1] (recurrent grade 3 gliomas) and 8% in data set [1] (recurrent grade 4 gliomas). For the same compound, the antitumor response result in the data set with U87 is “significant antitumor response”. The results for the “transport of temozolomide by human BCRP” value at human BCRP and at human BCRP (listed as Temozolomide) were “more moderate transport” and “less”, respectively. Also, in data set [2] (culture medium at 37° C.), the half-life was approximately 30 min. Besides, the degradation entry in data set [2] (pH 7.4, in 30 min) is “about 50%”. The entries for the “transport of temozolomide by murine Bcrp1” value at murine Bcrp1 and at murine Bcrp1 (listed as Temozolomide) were “clear vectorial transport” and “evident”, respectively.
